Data set [1] deals with Lipid bilayer. Kind of data set: Binding affinity to POPC liposome membrane assessed as cross-relaxation rate of F proton with C-3/C-2 region of lipid at compound to POPC molar ratio of 1:10 by NOESY 1H NMR analysis.
For data set [2], the system named is Lipid bilayer. The experiment in a line: Binding affinity to POPC liposome membrane assessed as 31P chemical shift anisotropy at compound to POPC molar ratio of 1:10 by NMR analysis (reference value: 28.9 ppm).
Data set [3] is described as follows: Lipophilicity of the compound assessed as capacity factor (CHI IAM7.4) at pH 7.4 by chromatographic analysis. As to conditions: buffer. Format: physicochemical.
The nature of data set [4]: n-octanol/PBS/sodium carbonate partition coefficient, log P of the compound after 4 hrs. Format: physicochemical.
Data set [5] concerns Lipid bilayer. The experiment in a line: Binding affinity to POPC liposome membrane assessed as cross-relaxation rate of E proton with C-3/C-2 region of lipid at compound to POPC molar ratio of 1:10 by NOESY 1H NMR analysis.
Data set [6] concerns Lipid bilayer. Kind of data set: Binding affinity to POPC liposome membrane in liquid disorder phase assessed as change in cross-relaxation rate of hydrophilic group B protons with G-3 segment at compound to POPC molar ratio of 1:10 to 1:5 by 1D 1H […] analysis.
Data set [7] concerns Lipid bilayer. The experiment in a line: Binding affinity to POPC liposome membrane in liquid disorder phase assessed as change in cross-relaxation rate of hydrophilic group B protons with G-1 segment at compound to POPC molar ratio of 1:10 to 1:5 by 1D 1H […] analysis.
For data set [8], the system named is Lipid bilayer. The experiment in a line: Binding affinity to POPC liposome membrane at compound to POPC molar ratio of 1:10 after 3 milliseconds by 2D NOESY NMR analysis.
Data set [9] concerns Lipid bilayer. The experiment in a line: Binding affinity to POPC liposome membrane at compound to POPC molar ratio of 1:10 after 3 milliseconds in presence of Mn2+ by 2D NOESY NMR analysis.
Data set [10] deals with Lipid bilayer. The experiment in a line: Binding affinity to POPC liposome membrane assessed as 31P chemical shift anisotropy at compound to POPC molar ratio of 1:10 in presence of Mn2+ by NMR analysis.
Data set [11] concerns Lipid bilayer. The experiment in a line: Binding affinity to POPC liposome membrane in liquid disorder phase assessed as broadening of POPC signals at compound to POPC molar ratio of 1:5 by 1D 1H […] analysis.
The test system of data set [12] is Lipid bilayer. The experiment in a line: Binding affinity to POPC liposome membrane in liquid disorder phase assessed as change in cross-relaxation rate of lypophilic group E protons with C2/C3 segment at compound to POPC molar ratio of 1:10 to 1:5 by 1D 1H […] analysis.
For data set [13], the system named is Lipid bilayer. Kind of data set: Binding affinity to POPC liposome membrane assessed as cross-relaxation rate of H proton with C-3/C-2 region of lipid at compound to POPC molar ratio of 1:10 by NOESY 1H NMR analysis.
Data set [14] has as its system Lipid bilayer. Kind of data set: Binding affinity to POPC liposome membrane at compound to POPC molar ratio of 1:10 after 300 milliseconds by NOESY 1H NMR analysis.
For data set [15], the system named is Lipid bilayer. Kind of data set: Binding affinity to POPC liposome membrane assessed as cross-relaxation rate of E protons with CH2-C= segment at compound to POPC molar ratio of 1:10 by NOESY 1H NMR analysis.
Data set [16] deals with Lipid bilayer. The experiment in a line: Binding affinity to POPC liposome membrane assessed as cross-relaxation rate of F protons with segment beta at compound to POPC molar ratio of 1:10 by NOESY 1H NMR analysis. Further details: scale not given: the % may be the effect or the level left.
The subject of data set [17] is Lipid bilayer. Kind of data set: Binding affinity to POPC liposome membrane assessed as cross-relaxation rate of F protons with segment gamma at compound to POPC molar ratio of 1:10 by NOESY 1H NMR analysis. Further details: scale not given: the % may be the effect or the level left.
For data set [18], the system named is Lipid bilayer. The experiment in a line: Binding affinity to POPC liposome membrane assessed as cross-relaxation rate of F protons with lipid acyl CH3 at compound to POPC molar ratio of 1:10 by NOESY 1H NMR analysis. Further details: scale not given: the % may be the effect or the level left.
In data set [19] the test system is Lipid bilayer. Kind of data set: Binding affinity to POPC liposome membrane assessed as cross-relaxation rate of E protons with C2/C3 segment at compound to POPC molar ratio of 1:10 by NOESY 1H NMR analysis.
Data set [20] concerns Lipid bilayer. The experiment in a line: Binding affinity to POPC liposome membrane assessed as cross-relaxation rate of F protons with segment G-3 at compound to POPC molar ratio of 1:10 by NOESY 1H NMR analysis. Details: scale not given: the % may be the effect or the level left.
Data set [21] concerns Lipid bilayer. The experiment in a line: Binding affinity to POPC liposome membrane assessed as cross-relaxation rate of E protons with (CH2)n segment at compound to POPC molar ratio of 1:10 by NOESY 1H NMR analysis.
Data set [22] deals with Lipid bilayer. Kind of data set: Binding affinity to POPC liposome membrane assessed as cross-relaxation rate of F protons with segment alpha at compound to POPC molar ratio of 1:10 by NOESY 1H NMR analysis. Further details: scale not given: the % may be the effect or the level left.

The term logP denotes the decadic logarithm of the partition coefficient of the neutral form, usually between octanol and water.

Calls of active or inactive are those of the source. The rule behind the calls is not given here.

For `CCc1ccc(CC)c2c1CC(NC[C@H](O)c1ccc(O)c3[nH]c(=O)ccc13)C2`, the outcome in the data set with Lipid bilayer [1] was Active. In the data set on Lipid bilayer [2], the Activity was in the range of 32 to 33.6 ppm. Also, the CHI in [3] is on record as 58.9. The compound also returned a logP at 4 h in data set [4] of 3.03.
Turning to `O=c1ccc2c([C@@H](O)CNC3Cc4ccccc4C3)ccc(O)c2[nH]1`, in the data set with Lipid bilayer [2], the Activity fell in the range of 32 to 33.6 ppm. For the same compound, the outcome in the data set with Lipid bilayer [5], in the data set with Lipid bilayer [6] and in the data set with Lipid bilayer [7] was Active. In addition, the CHI in [3] amounted to 41.6. The compound also displayed a logP at 4 h in data set [4] of 1.55.
For the compound `CCc1cc2c(cc1CC)CC(NC[C@H](O)c1ccc(O)c3[nH]c(=O)ccc13)C2` [INDACATEROL], the Activity lay within 32 to 33.6 ppm with Lipid bilayer [2] and 20 to 40% in the data set on Lipid bilayer [11]. The result in the data set with Lipid bilayer [8], in the data set with Lipid bilayer [9], in the data set on Lipid bilayer [10], in the data set on Lipid bilayer [5], in the data set with Lipid bilayer [6] and in the data set on Lipid bilayer [7] was Active. Further, the outcome in the data set with Lipid bilayer [12] was Active. In addition, the CHI in data set [3] is 62.5. In data set [4], this compound registered a logP at 4 h of 3.05.
Turning to `COc1ccc(CC(C)NCC(O)c2ccc(O)c(NC=O)c2)cc1` (stereo not drawn), the outcome in the data set on Lipid bilayer [13] and in the data set on Lipid bilayer [14] was Active. The Activity with Lipid bilayer [2] was 32 to 33.6 ppm.
Turning to `OCc1cc(C(O)CNCCCCCCOCCCCc2ccccc2)ccc1O` (stereo not drawn) [SALMETEROL], the result in the data set with Lipid bilayer [15], in the data set with Lipid bilayer [6], in the data set on Lipid bilayer [7], in the data set with Lipid bilayer [19] and in the data set on Lipid bilayer [21] was Active. In addition, the Activity with Lipid bilayer [16] is 26%; in the data set on Lipid bilayer [2], 32 to 33.6 ppm; with Lipid bilayer [17] it was 43%; in the data set with Lipid bilayer [18], 58%; in the data set on Lipid bilayer [5], below 0.0025 s⁻¹; in the data set on Lipid bilayer [20], 49%. For the same compound, the Activity in the data set on Lipid bilayer [22] was 69%. Further, the CHI in data set [3] was determined as 56.7. This compound gave a logP at 4 h in data set [4] of 3.08.
